Measured values: ChEMBL document CHEMBL3046063, “Synthesis and antimicrobial activity of 5-chloroindoline-2,3-dione derivatives” (2012)
In brackets after ≈: the same amount, converted by molar mass.

Assays:
Type in all cases: functional
Staphylococcus hominis = test: Antimicrobial activity against Staphylococcus hominis ATCC 27844 after 24 hr by broth dilution method; conditions: ATCC 27844, 24 h
Escherichia coli = test: Antimicrobial activity against Escherichia coli ATCC 25922 after 24 hr by broth dilution method; conditions: ATCC 25922, 24 h
Candida albicans = test: Antimicrobial activity against Candida albicans ATCC 10231 after 24 hr by broth dilution method; conditions: ATCC 10231, 24 h
Rhizoctonia solani = test: Antimicrobial activity against Rhizoctonia solani ATCC 76131 after 24 hr by broth dilution method; conditions: ATCC 76131, 24 h
[1] = test system: Staphylococcus epidermidis; test: Antimicrobial activity against Staphylococcus epidermidis ATCC 12228 after 24 hr by broth dilution method; conditions: ATCC 12228, 24 h
Klebsiella pneumoniae = test: Antimicrobial activity against Klebsiella pneumoniae ATCC 13883 after 24 hr by broth dilution method; conditions: ATCC 13883, 24 h
Bacillus cereus = test: Antimicrobial activity against Bacillus cereus ATCC 11778 after 24 hr by broth dilution method; conditions: ATCC 11778, 24 h
Pseudomonas aeruginosa = test: Antimicrobial activity against Pseudomonas aeruginosa ATCC 10145 after 24 hr by broth dilution method; conditions: ATCC 10145, 24 h
Trichophyton longifusum = test: Antimicrobial activity against Trichophyton longifusum ATCC 22397 after 24 hr by broth dilution method; conditions: ATCC 22397, 24 h
Proteus vulgaris = test: Antimicrobial activity against Proteus vulgaris ATCC 13315 after 24 hr by broth dilution method; conditions: ATCC 13315, 24 h
Aspergillus fumigatus = test: Antimicrobial activity against Aspergillus fumigatus after 24 hr by broth dilution method
Proteus mirabilis = test: Antimicrobial activity against Proteus mirabilis ATCC 49565 after 24 hr by broth dilution method; conditions: ATCC 49565, 24 h
Aspergillus flavus = test: Antimicrobial activity against Aspergillus flavus ATCC 15517 after 24 hr by broth dilution method; conditions: ATCC 15517, 24 h
Bacillus spizizenii = test: Antimicrobial activity against Bacillus subtilis subsp. spizizenii ATCC 6633 after 24 hr by broth dilution method; conditions: ATCC 6633, 24 h
Bacillus pumilus = test: Antimicrobial activity against Bacillus pumilus ATCC 14884 after 24 hr by broth dilution method; conditions: ATCC 14884, 24 h
Salmonella typhi = test: Antimicrobial activity against Salmonella enterica subsp. enterica serovar Typhi ATCC 19430 after 24 hr by broth dilution method; conditions: ATCC 19430, 24 h
Microsporum canis = test: Antimicrobial activity against Arthroderma otae ATCC 11622 after 24 hr by broth dilution method; conditions: ATCC 11622, 24 h
Fusarium solani = test: Antimicrobial activity against Fusarium solani ATCC 38136 after 24 hr by broth dilution method; conditions: ATCC 38136, 24 h
Aspergillus niger = test: Antimicrobial activity against Aspergillus niger ATCC 9142 after 24 hr by broth dilution method; conditions: ATCC 9142, 24 h
Alternaria alternata = test: Antimicrobial activity against Alternaria alternata ATCC 66868 after 24 hr by broth dilution method; conditions: ATCC 66868, 24 h
Micrococcus luteus = test: Antimicrobial activity against Micrococcus luteus ATCC 4698 after 24 hr by broth dilution method; conditions: ATCC 4698, 24 h
Staphylococcus aureus = test: Antimicrobial activity against Staphylococcus aureus ATCC 25923 after 24 hr by broth dilution method; conditions: ATCC 25923, 24 h
Aspergillus awamori = test: Antimicrobial activity against Aspergillus awamori ATCC 22342 after 24 hr by broth dilution method; conditions: ATCC 22342, 24 h
Trichoderma viride = test: Antimicrobial activity against Hypocrea rufa ATCC 52440 after 24 hr by broth dilution method; conditions: ATCC 52440, 24 h

| SMILES | MIC (Staphylococcus hominis) [µg/mL] | MIC (Escherichia coli) [µg/mL] | MIC (Candida albicans) [µg/mL] | MIC (Rhizoctonia solani) [µg/mL] | MIC [1] [µg/mL] | MIC (Klebsiella pneumoniae) [µg/mL] | MIC (Bacillus cereus) [µg/mL] | MIC (Pseudomonas aeruginosa) [µg/mL] | MIC (Trichophyton longifusum) [µg/mL] | MIC (Proteus vulgaris) [µg/mL] | MIC (Aspergillus fumigatus) [µg/mL] | MIC (Proteus mirabilis) [µg/mL] | MIC (Aspergillus flavus) [µg/mL] | MIC (Bacillus spizizenii) [µg/mL] | MIC (Bacillus pumilus) [µg/mL] | MIC (Salmonella typhi) [µg/mL] | MIC (Microsporum canis) [µg/mL] | MIC (Fusarium solani) [µg/mL] | MIC (Aspergillus niger) [µg/mL] | MIC (Alternaria alternata) [µg/mL] | further results |
| --- | --- | --- | --- | --- | --- | --- | --- | --- | --- | --- | --- | --- | --- | --- | --- | --- | --- | --- | --- | --- | --- |
| O=C1Nc2ccc(Cl)cc2/C1=N/N1C(=O)C(Cl)C1c1ccccc1Cl (centres undefined) | 300 (≈ 760 µM) | 150 (≈ 380 µM) | 75 (≈ 190 µM) | 150 (≈ 380 µM) | 150 (≈ 380 µM) | 300 (≈ 760 µM) | 300 (≈ 760 µM) | 300 (≈ 760 µM) | 150 (≈ 380 µM) | 150 (≈ 380 µM) | 150 (≈ 380 µM) | 300 (≈ 760 µM) | 150 (≈ 380 µM) | 150 (≈ 380 µM) | 300 (≈ 760 µM) | 300 (≈ 760 µM) | 75 (≈ 190 µM) | 150 (≈ 380 µM) | 150 (≈ 380 µM) | 150 (≈ 380 µM) | MIC (Micrococcus luteus): 150 µg/mL (≈ 380 µM); MIC (Staphylococcus aureus): 300 µg/mL (≈ 760 µM); MIC (Aspergillus awamori): 150 µg/mL (≈ 380 µM); MIC (Trichoderma viride): 150 µg/mL (≈ 380 µM) |
| O=C1Nc2ccc(Cl)cc2/C1=N/N1C(=O)CSC1c1ccco1 (centres undefined) | 37.5 (≈ 108 µM) | 75 (≈ 216 µM) | 18.8 (≈ 53.9 µM) | 18.8 (≈ 53.9 µM) | 75 (≈ 216 µM) | 75 (≈ 216 µM) | 75 (≈ 216 µM) | 75 (≈ 216 µM) | 18.8 (≈ 53.9 µM) | 75 (≈ 216 µM) | 18.8 (≈ 53.9 µM) | 75 (≈ 216 µM) | 37.5 (≈ 108 µM) | 37.5 (≈ 108 µM) | 37.5 (≈ 108 µM) | 37.5 (≈ 108 µM) | 37.5 (≈ 108 µM) | 37.5 (≈ 108 µM) | 37.5 (≈ 108 µM) | 37.5 (≈ 108 µM) | MIC (Micrococcus luteus): 75 µg/mL (≈ 216 µM); MIC (Staphylococcus aureus): 75 µg/mL (≈ 216 µM); MIC (Aspergillus awamori): 37.5 µg/mL (≈ 108 µM); MIC (Trichoderma viride): 37.5 µg/mL (≈ 108 µM) |
| O=C1Nc2ccc(Cl)cc2/C1=N/N1C(=O)C(Cl)C1c1ccco1 (centres undefined) | 37.5 (≈ 107 µM) | 37.5 (≈ 107 µM) | 18.8 (≈ 53.5 µM) | 37.5 (≈ 107 µM) | 75 (≈ 214 µM) | 75 (≈ 214 µM) | 37.5 (≈ 107 µM) | 37.5 (≈ 107 µM) | 18.8 (≈ 53.5 µM) | 37.5 (≈ 107 µM) | 18.8 (≈ 53.5 µM) | 37.5 (≈ 107 µM) | 37.5 (≈ 107 µM) | 75 (≈ 214 µM) | 37.5 (≈ 107 µM) | 75 (≈ 214 µM) | 37.5 (≈ 107 µM) | 37.5 (≈ 107 µM) | 18.8 (≈ 53.5 µM) | 37.5 (≈ 107 µM) | MIC (Micrococcus luteus): 37.5 µg/mL (≈ 107 µM); MIC (Staphylococcus aureus): 37.5 µg/mL (≈ 107 µM); MIC (Aspergillus awamori): 37.5 µg/mL (≈ 107 µM); MIC (Trichoderma viride): 37.5 µg/mL (≈ 107 µM) |
| O=C1Nc2ccc(Cl)cc2/C1=N/N1C(=O)C(Cl)C1c1ccccc1 (centres undefined) | 75 (≈ 208 µM) | 37.5 (≈ 104 µM) | 37.5 (≈ 104 µM) | 18.8 (≈ 52.1 µM) | 37.5 (≈ 104 µM) | 37.5 (≈ 104 µM) | 37.5 (≈ 104 µM) | 37.5 (≈ 104 µM) | 37.5 (≈ 104 µM) | 37.5 (≈ 104 µM) | 37.5 (≈ 104 µM) | 37.5 (≈ 104 µM) | 18.8 (≈ 52.1 µM) | 37.5 (≈ 104 µM) | 37.5 (≈ 104 µM) | 75 (≈ 208 µM) | 37.5 (≈ 104 µM) | 18.8 (≈ 52.1 µM) | 18.8 (≈ 52.1 µM) | 18.8 (≈ 52.1 µM) | MIC (Micrococcus luteus): 37.5 µg/mL (≈ 104 µM); MIC (Staphylococcus aureus): 75 µg/mL (≈ 208 µM); MIC (Aspergillus awamori): 37.5 µg/mL (≈ 104 µM); MIC (Trichoderma viride): 18.8 µg/mL (≈ 52.1 µM) |
| O=C1Nc2ccc(Cl)cc2/C1=N/N1C(=O)CSC1c1ccc([N+](=O)[O-])cc1 (centres undefined) | 9.37 (≈ 23.3 µM) | 18.8 (≈ 46.5 µM) | 9.37 (≈ 23.3 µM) | 9.37 (≈ 23.3 µM) | 18.8 (≈ 46.5 µM) | 9.37 (≈ 23.3 µM) | 18.8 (≈ 46.5 µM) | 9.37 (≈ 23.3 µM) | 4.68 (≈ 11.6 µM) | 37.5 (≈ 93.1 µM) | 4.68 (≈ 11.6 µM) | 18.8 (≈ 46.5 µM) | 4.68 (≈ 11.6 µM) | 37.5 (≈ 93.1 µM) | 18.8 (≈ 46.5 µM) | 18.8 (≈ 46.5 µM) | 4.68 (≈ 11.6 µM) | 9.37 (≈ 23.3 µM) | 4.68 (≈ 11.6 µM) | 4.68 (≈ 11.6 µM) | MIC (Micrococcus luteus): 9.37 µg/mL (≈ 23.3 µM); MIC (Staphylococcus aureus): 9.37 µg/mL (≈ 23.3 µM); MIC (Aspergillus awamori): 9.37 µg/mL (≈ 23.3 µM); MIC (Trichoderma viride): 9.37 µg/mL (≈ 23.3 µM) |
| O=C1Nc2ccc(Cl)cc2/C1=N/N1C(=O)C(Cl)C1c1ccccc1O (centres undefined) | 300 (≈ 797 µM) | 150 (≈ 399 µM) | 75 (≈ 199 µM) | 150 (≈ 399 µM) | 300 (≈ 797 µM) | 300 (≈ 797 µM) | 300 (≈ 797 µM) | 300 (≈ 797 µM) | 150 (≈ 399 µM) | 150 (≈ 399 µM) | 150 (≈ 399 µM) | 150 (≈ 399 µM) | 150 (≈ 399 µM) | 300 (≈ 797 µM) | 300 (≈ 797 µM) | 300 (≈ 797 µM) | 150 (≈ 399 µM) | 75 (≈ 199 µM) | 75 (≈ 199 µM) | 150 (≈ 399 µM) | MIC (Micrococcus luteus): 150 µg/mL (≈ 399 µM); MIC (Staphylococcus aureus): 150 µg/mL (≈ 399 µM); MIC (Aspergillus awamori): 150 µg/mL (≈ 399 µM); MIC (Trichoderma viride): 150 µg/mL (≈ 399 µM) |
